Reference: patent US20210085630A1, “PHARMACEUTICAL COMPOSITION AND USE THEREOF IN PREPARING DRUG FOR TREATING TUMOR MULTI-DRUG RESISTANCE” (SICHUAN JIUZHANG BIOLOGICAL SCIENCE AND TECHNOLOGY CO., LTD., priority 2018, published 2021)

Legend:
[1] = system: drug-resistant A375 melanoma cell lines; experiment: MTT: non-cytotoxic concentration of test drugs, drug-resistant A375; assay type: cell-based, human; details: 48 h
Experimental: The culture and treatment methods of cells and drug-resistant cells were the same as above.
(§1) For the experiment, there were eight groups: blank group, control group and test-drug groups. […] The plates were placed in an incubator and incubated for 48 h, then 5 mg/ml MTT (20 μl) was added to each well, and the plate was further incubated for 4 h.

[2] = system: drug-resistant A549 lung cancer cell lines; experiment: MTT: non-cytotoxic concentration of test drugs, drug-resistant A549; assay type: cell-based, human; details: 48 h
Experimental: as §1, with “The culture and treatment methods of cells and drug-resistant cells were the same as above. For” for “For”

[3] = system: dacarbazine-resistant B16 melanoma; experiment: Tumor weight and inhibition rate, transplanted dacarbazine-resistant B16 melanoma; assay type: in vivo; details: dacarbazine-resistant B16 melanoma mice; test drug 30 mg/kg i.p. once a day 5 days, then dacarbazine 60 mg/kg every other day; positive drug dacarbazine 60 mg/kg
Experimental: B16 melanoma cell lines were induced by the increased gradient concentration of dacarbazine, and established by clone screening and cultured without drug before the experiment.
(§2) After the drug was removed from the drug-resistant cell lines, the cell concentration was adjusted to 1×10^7/ml with the culture medium. 1×10^7/ml of cells were subcutaneously injected into the right armpit of mice, 0.1 ml per mouse.
(§3) After the average diameter of tumor reached […], the mice were randomly divided into test drug group 1, test drug group 2, test drug group 3, test drug group 4, test drug group 5, test drug group 6, positive drug group, and negative group, respectively.
(§4) Test drug group: the test drug group was first intraperitoneally injected, once a day, 30 mg/kg/time, for 5 consecutive days; administration was stopped, and the positive drug was given by intraperitoneal injection on the next day; wherein the positive drug dacarbazine was administrated once every other day, 60 mg/kg/time; wherein the positive drug gemcitabine was given once every other day, 300 mg/kg/time.
(§5) Positive drug group: positive drug dacarbazine was given once every other day, 60 mg/kg/time; positive drug gemcitabine was given once every other day, 300 mg/kg/time.
(§6) Negative group: normal saline was intraperitoneally injected, once a day, for 15 consecutive days.
(§7) After completion of administration, the experiment was stopped, and the mice were killed by cervical dislocation and weighed. The tumor was stripped and weighed, to calculate the tumor inhibition rate.

[4] = system: gemcitabine-resistant Lewis lung cancer; experiment: Tumor weight and inhibition rate, transplanted gemcitabine-resistant Lewis lung cancer; assay type: in vivo; details: gemcitabine-resistant Lewis lung cancer mice; test drug 30 mg/kg i.p. once a day 5 days, then gemcitabine 300 mg/kg every other day; positive drug gemcitabine 300 mg/kg
Experimental: Lewis lung cancer cell lines were induced by the increased gradient concentration of gemcitabine, and established by clone screening and cultured without drug before the experiment.
as §2, §3, §4, §5, §6, §7

PD-1/PD-L1 [5] = experiment: PD-1/PD-L1 expression rate (immunohistochemical SP method), drug-resistant B16 melanoma tumor tissue; assay type: in vivo; details: transplanted tumor tissues of drug-resistant B16 melanoma in mice, Example 3 regimen
From the text: (§8) The positive expression rate of PD-1/PD-L1 in tumor tissues was detected by immunohistochemical SP method.

PD-1/PD-L1 [6] = experiment: PD-1/PD-L1 expression rate (immunohistochemical SP method), drug-resistant Lewis lung cancer tumor tissue; assay type: in vivo; details: transplanted tumor tissues of drug-resistant Lewis lung cancer in mice, Example 3 regimen
From the text: as §8

[7] = system: CD4+T and CD8+T lymphocytes; experiment: Number of CD4+T and CD8+T cells (immunofluorescence), drug-resistant Lewis lung cancer transplanted tumor; assay type: in vivo; details: transplanted tumor of drug-resistant Lewis lung cancer in mice, average of 6 high power fields
Experimental: (§9) The number of CD4+T and CD8+T lymphocytes was analyzed by immunofluorescence staining, and the average number of CD4+T and CD8+T cells infiltrated in 6 high power fields was counted.

[8] = system: Opdivo-resistant B16 melanoma; experiment: Antitumor effect (tumor volume, weight, inhibition rate) in Opdivo-resistant B16 melanoma mice; assay type: in vivo; details: for Tumor volume (cm^3): 30 mg/kg i.p. once a day, + Opdivo groups: test drug 5 days, then Opdivo 30 mg/kg every other day; for Tumor inhition rate (%) / Tumor weight: 30 mg/kg i.p., + Opdivo groups 30 + 30 mg/kg
Experimental: (§10) The concentration of cell lines was adjusted to 1×10^7/ml with the culture medium. 1×10^7/ml of cells were subcutaneously injected into the right armpit of mice, 0.1 ml per mouse.
(§11) The model mice were randomly divided into groups, eight for one group, and included test drug group 1, test drug group 2, test drug group 3, test drug group 4, positive drug Opdivo group, single drug chlorogenic acid group, test drug 1+Opdivo group, test drug 2+Opdivo group, test drug 3+Opdivo group, test drug 4+Opdivo group, and negative group, respectively.
(§12) Test drug group: from the second day after stopping administration to the model, the group received drug by intraperitoneal injection, once a day, 30 mg/kg.
(§13) Single drug group: from the second day after stopping administration to the model, the group received drug by intraperitoneal injection, once a day, 30 mg/kg.
(§14) Test drug+Opdivo group: from the second day after stopping administration to the model, the group received the test drug by intraperitoneal injection, once a day, and the test drug was stopped after administrating for 5 consecutive days; on the next day, Opdivo was intraperitoneally injected, once every other day, with the dosage of 30 mg/kg.
(§15) Positive drug group: once every other day, 30 mg/kg.
(§16) Negative group: normal saline was intraperitoneally injected, once a day, the same amount of saline.
(§17) Before each administration, the tumor volume was measured, and the experiment was stopped when the average tumor volume of negative group was greater than 1.5 cm^3.
as §7

[9] = system: Opdivo-resistant Lewis lung cancer; experiment: Antitumor effect (tumor volume, weight, inhibition rate) in Opdivo-resistant Lewis lung cancer mice; assay type: in vivo; details: for Tumor volume (cm^3): 30 mg/kg i.p. once a day, + Opdivo groups: test drug 5 days, then Opdivo 30 mg/kg every other day; for Tumor inhibition rate (%) / Tumor weight: 30 mg/kg i.p., + Opdivo groups 30 + 30 mg/kg
Experimental: as §10, §11, §12, §13, §14, §15, §16, §17, §7

PD-1/PD-L1 [10] = experiment: PD-1/PD-L1 expression rate in tumor tissues of Opdivo-resistant B16 melanoma mice; assay type: in vivo; details: tumor tissues of drug-resistant (Opdivo) B16 melanoma mice
From the text: as §8

[11] = system: CD4+T and CD8+T lymphocytes; experiment: Number of CD4+T and CD8+T cells in Opdivo-resistant B16 melanoma mice; assay type: in vivo; details: drug-resistant (Opdivo) B16 melanoma mice, average of 6 high power fields
Experimental: as §9

[12] = system: CD4+T and CD8+T lymphocytes; experiment: Number of CD4+T and CD8+T cells in Opdivo-resistant Lewis lung cancer mice; assay type: in vivo; details: drug-resistant (Opdivo) Lewis lung cancer mice, average of 6 high power fields
Experimental: as §9

[13] = system: multi-drug resistant Lewis lung cancer; experiment: Tumor weight and inhibition rate, transplanted multi-drug resistant Lewis lung cancer; assay type: in vivo, mice; details: multi-drug resistant Lewis lung cancer mice; test drug 30 mg/kg i.p. 5 days, then gemcitabine 300 mg/kg or dacarbazine 60 mg/kg every other day
Experimental: Lewis lung cancer cell lines were induced by the increased gradient concentration of dacarbazine and gemcitabine, and established by clone screening, then cultured without drug before the experiment.
as §2, §3, §4, §5, §6, §7

PD-1/PD-L1 [14] = experiment: PD-1/PD-L1 expression rate in transplanted tumor tissues, multidrug resistance model; assay type: in vivo; details: transplanted tumor tissues of B16 melanoma mice with multidrug resistance (as titled), Example 5 regimen
From the text: as §8

SMILES	Non-cytotoxic concentration (all inhibition rates <10%) [1] [µg/mL]	Non-cytotoxic concentration (all inhibition rates <10%) [2] [µg/mL]	Tumor inhibition rate (%) [3] [%]	Tumor inhibitory rate (%) [4] [%]	Tumor weight (g) [4]	Expression rate of PD-1/PD-L1, Positive PD-L1 (PD-1/PD-L1 [5]) [%]	Expression rate of PD-1/PD-L1, Positive PD-L1 (PD-1/PD-L1 [6]) [%]	CD4 + T cells (number) [7]	CD8 + T cells (number) [7]	Tumor volume (cm^3) [8] [cm^3]	Tumor inhition rate (%) [8] [%]	Tumor weight [8] [g]	Tumor volume (cm^3) [9] [cm^3]	Tumor inhibition rate (%) [9] [%]	Tumor weight [9] [g]	Expression rate of PD-1/PD-L1, Positive PD-L1 (PD-1/PD-L1 [10]) [%]	CD4 + T cells (number) [11]	CD8 + T cells (number) [11]	CD4 + T cells (number) [12]	CD8 + T cells (number) [12]	further results
O=C(/C=C/c1ccc(O)cc1)O[C@@H]1C[C@](O)(C(=O)O)C[C@@H](O)[C@H]1O [Coumaroylquinic acid, coumaroylquinic acid]	862	1142	15.91	5.68	2.16 ± 0.41 ^ g	73.39	79.23	78.75 ± 6.39	98.53 ± 4.98	1.762 ± 0.947	4.24	2.71 ± 0.46	1.584 ± 0.424	3.88	2.48 ± 0.55	82.87	75.09 ± 5.23	88.26 ± 5.36	65.12 ± 5.17	113.64 ± 8.23	Tumor weight [3]: 2.22 ± 0.26 g; Tumor weight [13]: 2.15 ± 0.72 g; Tumor-inhibition rate (%) [13]: 8.90%; Expression rate of PD-1/PD-L1, Positive PD-L1 (PD-1/PD-L1 [14]): 73.39%
O=C(/C=C/c1ccc(O)c(O)c1)O[C@@H]1C[C@](O)(C(=O)O)C[C@@H](O)[C@H]1O [Chlorogenic acid, chlorogenic acid]	830	1256	19.32	10.48	2.05 ± 0.79 ^ g	72.26	81.83	80.63 ± 5.08	106.62 ± 6.88	1.788 ± 0.539	3.18	2.74 ± 0.59	1.592 ± 0.704	3.18	2.46 ± 0.72	83.41	74.63 ± 6.35	89.42 ± 2.52	66.52 ± 4.63	119.38 ± 6.55	Tumor weight (g) [3]: 2.13 ± 0.52*Δ g; continuous treatment effect / effect on tumor volume control (in words) [8]: not obvious; continuous treatment effect / effect on tumor volume control (in words) [9]: not obvious; Tumor weight [13]: 1.92 ± 0.69 g; Tumor-inhibition rate (%) [13]: 18.64%; Expression rate of PD-1/PD-L1, Positive PD-L1 (PD-1/PD-L1 [14]): 72.26%
